# Laboratory results as given in patent publication US20250368608A1, “SELECTIVE HDAC6 INHIBITOR” (ROYAL COLLEGE OF SURGEONS IN IRELAND, priority 2021, published 2025).
# Entries after “also recorded” stand apart in the source; their conditions may differ.
# Legend:
# [1] = test system: acetylated tubulin; experiment: Western blot of acetylated tubulin in cells; type: cell-based; conditions: increasing doses
# Procedure: (§1) Protein samples for Western blot analysis were separated by 12% SDS-PAGE gels. Following separation on the gel, proteins were transferred using electrophoresis onto a nitrocellulose membrane and blocked at room temperature shaking in 5% milk (w/v) in TBS containing 0.5% Tween-20 (TBS-T). Membranes were incubated overnight at 4° C. with primary antibody. HRP tagged secondary antibodies were diluted in TBS-T/5% milk for 1 hr. Antibody reactive bands were detected with LAS-3000, Fujifilm. Fluorescent secondary antibodies were diluted 1:10000 in TBS-T/5% milk for 1 hour. Antibody reactive bands were detected with the Odyssey® infrared imaging system (LI-COR Biosciences). IRDye® 680LT and 800CW-Infrared Dye coupled anti-rabbit or anti-mouse (LI-COR Biosciences).
# [2] = test system: MDA-231 cells; experiment: Extracellular flux assay (OCR); type: cell-based; conditions: MDA-231, 10 μM
# Procedure: (§2) The bioenergetic function of cells in response to drug treatments was determined using a Seahorse Bioscience XF96 Extracellular Flux Analyzer (Seahorse Bioscience). Cells were seeded in specialized V7 Seahorse tissue culture plates (Agilent, 102601-100) for 24 hrs. […] One hr prior to experiment, cells were washed and changed to XF Base medium (Agilent, 10353-100) adjusted to pH 7.4. For OXPHOS experiments medium was supplemented with pyruvate (1 mM), L-glutamine (2 mM) and glucose (10 mM). […] For glycolysis experiments medium was supplemented with L-glutamine (1 mM). […] For all analysis values were normalized to protein concentration before baseline measurements were subtracted. The fold change was calculated relative to DMSO.
# [3] = test system: BT549 cells; experiment: Extracellular flux assay (OCR); type: cell-based; conditions: BT549, 10 μM
# Procedure: as §2
# [4] = test system: HDAC proteins (HDAC1-9); experiment: HDAC inhibitory assay, isozyme panel; conditions: in vitro HDAC inhibitor screen
# [5] = test system: aldolase; experiment: Immunoprecipitation with acetyl beads; type: cell-based; conditions: 10 μM, 24 hr treatment
# Procedure: Cell lysates were prepared in lysis buffer (50 mM Tris-HCL PH 7.4, 150 mM NACL, 1% Triton x100, 1 mM EDTA and protease inhibitors). Protein was quantified and 500 μg of protein was added to 20 μl of A-agarose beads (Pierce, 20333) and allowed to rotate for 1 hr at 4° C. and 3000 rpm. Proteins were centrifuged for 3 minutes at 3000 rpm at 4° C. Supernatant was added to 500 μl of lysis buffer, […] pan-specific anti-acetylated lysine beads (Immunechem, ICP0388) or control agarose beads, and made up to 1 ml with dH2O. Samples were rotated overnight at 4° C. at 3000 rpm. Samples were washed with lysis buffer and were resuspended in 30 μl of 2×IP Dye with BME and boiled and ran out on 12% SDS-PAGE gel.
# [6] = test system: MMTV-pyMT tumors; experiment: MMTV-pyMT genetic breast mouse model; conditions: 50 mg/kg, two weeks
# [7] = type: in vivo; conditions: 50 mg/kg, while on treatment
# [8] = test system: MDA231 cells; experiment: Migration and invasion assays (Boyden chamber); type: cell-based; conditions: MDA231, 30 μM
# Procedure: (§3) Cell migration and invasion experiments were performed using the Boyden Chamber Assay (Corning, CLS3464). 500,000 cells were seeded in serum free RPMI media (Thermo Fisher Scientific, 118757093) in the upper chamber and RPMI media containing 10% FBS (Sigma, F2442), was placed in the lower chamber. For invasion experiments the upper chamber was coated with Matrigel™ (Corning). […] Following 24 hrs (migration experiments) or 48 hrs (invasion experiments) treatment cells were stained with 0.5% crystal violet.
# [9] = test system: BT549 cells; experiment: Migration and invasion assays (Boyden chamber); type: cell-based; conditions: BT549, 30 μM
# Procedure: as §3
# [10] = test system: mitochondrial membrane potential; experiment: Mitochondrial membrane potential (TMRE); type: cell-based; conditions: 10 μM
# Procedure: Apoptosis was assessed by Annexin V/propidium iodide (Biolegend, 640906, Sigma P4170) staining using LSRII Biosciences, Facscanto. Cell viability was detected by CellTiter-Glo® (My Bio, G3582) according to the manufacture's protocol. Mitochondrial membrane potential was measured by adding Tetramethylrhodamine, ethyl ester (TMRE) (Biosciences, T669) at 20 nM for 30 minutes at 37° C. and assessed by flow cytometry with FACS CANTO II.
# [11] = test system: MDA231; experiment: 3D spheroid formation in Matrigel; type: cell-based; conditions: MDA231, 30 μM
# Procedure: Individual wells of a 6 well plate was coated with Matrigel™ (Corning) and placed in an incubator at 37° C. for 30 min. 50,000 cells/ml were resuspended in RPMI supplemented with 2% Matrigel™ Cells were placed in Matrigel™ coated wells for 30 min at 37° C., after which RMPI supplemented with 2% Matrigel™ was added to the cultures. […] Cells were maintained in culture for 7 days in an incubator at 37° C., 5% CO2 and cultures imaged every 24 hrs with Nikon ECLIPSE TE300.
# [12] = test system: 4T1 tumors; experiment: 4T1 syngeneic breast mouse model; conditions: 50 mg/kg, two weeks, 4T1 model
# [13] = test system: MDA231 cells; experiment: U-13C6-glucose stable isotope tracing, GC-MS; type: cell-based; conditions: MDA231, 10 μM, 24 hrs
# Procedure: Cells were seeded in 12-well tissue culture plates and left to adhere overnight. […] Following treatment, media was removed and cells were washed with 1×PBS before adding basic RPMI (Thermo Fisher Scientific, 11879020) supplemented with dialyzed FBS (Gibico 26400044) and either 10 mM of [U]-^13C6 labelled glucose (Cambridge Isotopes CLM-1396) for 30 minutes or tracing media containing 10 mM 1,2-^13C labelled glucose (Cambridge Isotopes CLM-504) for 12 h. Cellular metabolites were extracted after a brief wash with 0.9% ice-cold saline solution using a methanol/water/chloroform extraction method, as previously described (48).
# (§4) Metabolite derivitzation using MOX-tBDMS was conducted as previously described (49).
# (§5) Derivatized samples were analyzed by GC-MS using a DB-35MS column (30 m×0.25 mm i.d.×0.25 μm) installed in an Agilent 7890B gas chromatograph (GC) interfaced with an Agilent 5977B mass spectrometer as previously described (50) and corrected for natural abundance using in-house algorithms adapted from (51).
# [14] = test system: GAPDH; experiment: GAPDH activity assay; type: cell-based
# Procedure: (§6) The activity assay was performed as per the manufacturer's instructions (Aldolase: Biovision, K665, GAPDH: Sigma, MAK277). Values were normalized to protein concentrations and fold change was calculated relative to DMSO.
# [15] = test system: MDA231 cells; experiment: Metabolite secretion, GC-MS; type: cell-based; conditions: MDA231, 10 μM, 24 hrs
# Procedure: Media was centrifuged at 1,000×g to pellet cell debris and 5 μL of supernatant was extracted in 80% ice-cold methanol mixture containing isotope-labeled internal standards for lactate (Cayman Chemicals CLM-1579), and pyruvate (Cayman Chemicals CLM-2440) and evaporated to dryness.
# as §4, §5
# [16] = test system: 4T1 cell line; experiment: Extracellular flux assay (ECAR, glycolysis); type: cell-based, mouse; conditions: 4T1, 24 hrs
# Procedure: as §2
# [17] = test system: aldolase; experiment: Aldolase activity assay; type: cell-based
# Procedure: as §6
# [18] = test system: 4T1 tumors; experiment: Tumor metabolites by GC-MS, 4T1 syngeneic breast cancer model; type: in vivo, mouse; conditions: 4T1 model
# Procedure: Following 7 or 14 days treatment mice was fasted for 6-8 h prior to euthanasia and tumor harvest. Tumor metabolites were extracted in methanol/water/chloroform using the Qiagen TissueLyser LT, evaporated to dryness and resuspended in 80% methanol. The equivalent volume for 5 mg of tissue was further extracted in 80% ice-cold methanol mixture containing isotope-labeled standards for lactate (Cayman Chemicals CLM-1579), and pyruvate (Cayman Chemicals CLM-2440) and evaporated to dryness.
# as §4, §5
# [19] = test system: MDA231 cells; experiment: Extracellular flux assay (ECAR, glycolysis); type: cell-based; conditions: MDA231, 10 μM, 24 hr
# Procedure: as §2
# [20] = test system: MCF10a cells; experiment: Extracellular flux assay (ECAR, glycolysis); type: cell-based; conditions: 10 μM, 24 hr
# Procedure: as §2
# [21] = test system: Histone 4 (H4); experiment: Acetylation of Histone 4 in cells; type: cell-based
# Procedure: as §1
smiles,measurement,setting,value
O=C(CSC1=NC2CCCCC2N1)N1CCOCC1 (stereo not drawn) [BAS-2],acetylated tubulin level,[1],increase in the acetylated tubulin
same,"OCR, basal respiration and ATP production",[2],did not observe any significant changes in OCR
same,"OCR, basal respiration and ATP production",[3],did not observe any significant changes in OCR
same,HDAC isozymes inhibited,[4],inhibited only the isozyme HDAC6
same,acetylation of aldolase,[5],increased the acetylation of aldolase
same,tumor volume,[6],reduction in tumor volume
same,toxicity as assessed by weight of the mice,[7],did not detect any overt evidence of toxicity
same,cell migration and invasion,[8],significant reduction in both cell migration and invasion
same,cell migration and invasion,[9],significant reduction in both cell migration and invasion
same,mitochondrial membrane potential,[10],no loss of mitochondrial membrane potential
same,3D spheroid formation,[11],reduction in 3D spheroid formation
same,tumor weight and tumor volume,[12],reduction in tumor weight and tumor volume; also recorded: reduce tumor volume and weight
same,"carbon incorporation from glucose into PEP, 3PG, lactate and pyruvate",[13],significant reduction in carbon incorporation from glucose
same,GAPDH activity,[14]; BT-549,dose dependent reduction in GAPDH activity
same,GAPDH activity,[14]; MDA-231,dose dependent reduction in GAPDH activity
same,secretion of lactate and pyruvate,[15],significant reduction in the secretion of lactate and pyruvate
same,glycolysis and glycolytic flux,[16],decrease in glycolysis and glycolytic flux
same,aldolase enzymatic activity,[17]; BT-549 cells,dose-dependent significant reduction in aldolase enzymatic activity
same,aldolase enzymatic activity,"[17]; MDA231 cells, 24 hrs",dose-dependent significant reduction in aldolase enzymatic activity
same,intratumoral lactate,[18],trend towards decreased intratumoral lactate
same,intratumoral pyruvate levels,[18],significant reduction in intratumoral pyruvate levels
same,glycolytic capacity (ECAR),[19],reduced the glycolytic capacity
same,glycolysis and glycolytic capacity (ECAR),[20],did not affect the glycolysis or glycolytic capacity
same,acetylation of Histone 4 (H4),[21],did not cause an increase in acetylation of Histone 4
